From patent publication EP4782434A1, “N-SULFONYL CARBOXAMIDE COMPOUND, AND PREPARATION METHOD THEREFOR AND USE THEREOF” (Nutshell Therapeutics (Shanghai) Co., Ltd., priority 2023, dated 2025)

What was measured:
[1] = target: T1, Polθ ATPase (Homo sapiens, UniProt O75417); assay: Polθ ATPase activity assay (ADP-Glo Kinase Assay kit); format: biochemical; conditions: truncated POLQ-N protein (aa 1-894) 1 nM, 50 nM ssDNA, 50 µM ATP
T1 construct: purified truncated POLQ-N protein (aa 1-894, N-terminal 6-His tag); 6-His (N)
Experimental: The inhibitory efficiency of the compounds of formula (I) against Polθ ATPase activity was determined using the ADP-Glo Kinase Assay kit (Promega, V9101). […] The starting (final) concentration was 100 nM, followed by a 3-fold serial dilution for a total of 10 concentration points in duplicate (n=2). 5 μL of purified […], N-terminal 6-His tag) was added to each well. After centrifugation at 1000 rpm for 1 minute, the plate was incubated at 25°C for 10 minutes. 5 μL of substrate reaction solution (containing ATP & ssDNA) was added to each well, and the reaction was carried out at 25°C for 60 minutes. 5 μL of ADP-Glo Reagent was added to each well. After centrifugation at 1000 rpm for 1 minute, the plate was incubated at 25°C for 40 minutes. 10 μL of detection solution was added to each well. After centrifugation at 1000 rpm for 1 minute, the plate was incubated at 25°C for 40 minutes. Luminescence signals were recorded using a microplate reader (BMG, PHERAstar FSX). The final reaction system contained 1 nM of POLQ-N enzyme; 50 nM of ssDNA ([NT]); 50 μM of ATP; and 1% DMSO. The inhibition percentage (%) of the compound at each concentration was calculated using the RFU values normalized against the control wells within each assay plate. Table 1: Inhibitory activity of compounds against Polθ ATPase

[2] = tested on: DLD-1 BRCA2-/- cells; assay: DLD-1 BRCA2-/- cell proliferation assay (CellTiter-Glo, 10 days incubation); format: cell-based; conditions: Homo sapiens, 240 h, DLD-1 BRCA2-/- cell line, total incubation period of 10 days, read-out: DLD1 BRCA2^-/- IC50
Text: The anti-proliferative effect of the compounds on the human colorectal adenocarcinoma cell line DLD-1 BRCA2^-/- method.
• DLD-1 (purchased from ATCC, Cat. No.: CCL-221, Batch No.: 70033255); • RPMI1640 (purchased from Invitrogen, Cat. No.: 11875-085); • 0.25% Trypsin-EDTA (purchased from Invitrogen, Cat. No.: 25200-072); • Penicillin-Streptomycin solution (purchased from Hyclone, Cat. No.: SV30010); • FBS (purchased from BI, Cat. No.: 04-002-1A); • DMSO (purchased from Sigma, Cat. No.: D4540-1L); • 96-well plate (purchased from Corning, Cat. No.: CLS3903); • CellTiter-Glo reagent (purchased from Promega, Cat. No.: G7558).
The anti-proliferative effect of the compounds on a human colorectal adenocarcinoma cell line was evaluated using an ATP quantification method, wherein the measured activity correlates well with the number of viable cells. The genetically edited cell line DLD-1 BRCA2^-/- was cultured in RPMI 1640 medium (Invitrogen, 11875-085) supplemented with 10% (v/v) fetal bovine serum (BI, 04-002-1A). The cell line was cultured according to the standard instructions of the American Type Culture Collection (ATCC) and identified via short tandem repeat (STR) genotyping.
In the proliferation assay, cells were harvested and resuspended in cell culture medium. Cell density was determined using a cell counter. An appropriate volume of cell suspension was aspirated from the centrifuge tube to prepare a plating working solution (150 cells/100 µL for the DLD-1 BRCA2^-/- cell line). 100 µL of the cell suspension was seeded into each well of a 96-well plate (Corning, 3603) and incubated overnight in an incubator. The diluted test compound solutions were added to the wells. On the fourth and seventh days of compound incubation, the medium was replaced with fresh culture medium, and the compounds were re-administered, for a total incubation period of 10 days. Following incubation, the cell culture plates were removed and equilibrated to room temperature. 100 µL of CellTiter-Glo (Promega, G7558) was added to each well, and the plate was incubated at room temperature for 30 minutes. Data were read using a microplate reader (PerkinElmer, Enspire) in 96-well luminescence mode. Data analysis, curve fitting, and reporting were performed using the dose-response one-site 205 model of IDBS XL fit. Table 2: Proliferation inhibitory activity of compounds against DLD-1 BRCA2-/- cells

[3] = tested on: Theta-mediated end joining (TMEJ) process in HEK293T cells; assay: TMEJ reporter assay (NanoGlo luciferase); format: cell-based; conditions: Homo sapiens, HEK-293T, HEK293T cells electroporated with TMEJ substrate, 24 hours
Experimental: The inhibitory effect of the compounds on the Theta-mediated end joining (TMEJ) process was evaluated.
(1) HEK293T cells were cultured in DMEM supplemented with 10% heat-inactivated fetal bovine serum (FBS) and 1% penicillin-streptomycin (PS). (2) Prior to startup, the Neon transfection system was disinfected, and E2 and R buffers were equilibrated to room temperature. (3) Culture medium without antibiotics was pre-warmed. (4) Cells in the flask reaching 80-90% confluency were trypsinized, neutralized with culture medium, centrifuged, and counted. (5) For transfection using a 100 µL electroporation tip, 2 × 10^6 cells were taken, washed once with DPBS (without Mg^2+ and Ca^2+), centrifuged at 1000 rpm for 5 min, and the supernatant was discarded. The number of cells and volume may be increased as required. (6) The Neon system was set up; a Neon tube was inserted into the Neon pipette and E2 buffer was added. (7) 10 µg of TMEJ substrate was added to 100 µL of R solution; the volume may be increased as required. (8) Cells were resuspended in DNA buffer, and electroporation was initiated according to the following parameters:
(9) The cells were loaded into antibiotic-free culture medium and mixed gently. (10) Steps (8)-(9) were repeated as necessary, and cells were seeded into 384-well plates at a density of 40,000 cells/well in 40 µL of culture medium. (11) The plates were incubated in a humidified CO2 incubator at 37°C for 24 hours. (12) NanoGlo reagent was warmed to room temperature, and NanoGlo buffer was mixed with the substrate at a ratio of 50:1. (13) The cell culture plates were equilibrated at room temperature for 10 minutes. (14) 40 µL of NanoGlo substrate buffer was added to each well, followed by shaking at 300 rpm for 3 minutes protected from light. (15) Signals were read via a BMG PHERAstar FSX.

T1 sequence (O75417 1-894): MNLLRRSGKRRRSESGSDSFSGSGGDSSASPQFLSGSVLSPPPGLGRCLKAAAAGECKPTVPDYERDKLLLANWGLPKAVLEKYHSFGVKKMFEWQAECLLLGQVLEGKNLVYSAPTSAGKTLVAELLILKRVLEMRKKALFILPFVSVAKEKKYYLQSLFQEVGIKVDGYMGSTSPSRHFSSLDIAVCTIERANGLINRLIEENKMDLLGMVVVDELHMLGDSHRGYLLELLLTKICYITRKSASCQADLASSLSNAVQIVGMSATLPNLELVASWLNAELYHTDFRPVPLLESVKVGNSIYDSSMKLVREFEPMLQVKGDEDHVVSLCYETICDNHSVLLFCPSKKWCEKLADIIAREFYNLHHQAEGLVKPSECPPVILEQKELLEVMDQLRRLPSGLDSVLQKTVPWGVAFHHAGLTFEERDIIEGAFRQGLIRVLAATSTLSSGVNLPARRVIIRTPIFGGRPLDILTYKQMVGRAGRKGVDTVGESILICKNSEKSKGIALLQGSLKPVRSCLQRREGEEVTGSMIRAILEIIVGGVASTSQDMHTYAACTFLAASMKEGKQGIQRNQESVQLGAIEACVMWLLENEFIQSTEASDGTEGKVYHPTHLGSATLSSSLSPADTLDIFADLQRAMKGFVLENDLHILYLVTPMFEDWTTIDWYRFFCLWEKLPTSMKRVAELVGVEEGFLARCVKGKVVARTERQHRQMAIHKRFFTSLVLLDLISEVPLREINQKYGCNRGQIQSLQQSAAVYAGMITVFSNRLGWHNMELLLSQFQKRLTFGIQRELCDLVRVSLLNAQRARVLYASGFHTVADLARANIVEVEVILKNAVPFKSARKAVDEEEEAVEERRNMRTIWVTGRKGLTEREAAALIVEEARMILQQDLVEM

Compound | IC50 ([1]; class symbols) | IC50 ([1]; specific values) | IC50 [2] | IC50 [3]
[2H]C([2H])([2H])Oc1cnc(C(F)F)cc1-c1cc(C([2H])([2H])[2H])ccc1C(=O)NS(=O)(=O)Cc1ccc([C@H](C)OC([2H])([2H])[2H])cc1 [cpd-18, (S)-2-(2-(Difluoromethyl)-5-(methoxy-d3)pyridin-4-yl)-N-((4-(1-(methoxy-d3)ethyl)benzyl)sulfonyl)-4-(methyl-d3)benzamide] | ≤ 2 nM | 1.4 nM | 17 nM | 1.3 nM
COc1ccc(C(F)F)cc1-c1cc(CC(=O)N(C)C)ccc1C(=O)NS(=O)(=O)Cc1ccc(C(C)C)cc1 [cpd-11, 5'-(Difluoromethyl)-5-(2-(dimethylamino)-2-oxoethyl)-N-((4-isopropylbenzyl)sulfonyl)-2'-methoxy-[1,1'-biphenyl]-2-carboxamide] | ≤ 2 nM | 0.53 nM | 99 nM | 2 nM
COc1cnc(C(F)F)cc1-c1cc(C)ccc1C(=O)NS(=O)(=O)Cc1ccc([C@H](C)OC)cc1 [cpd-4, (S)-2-(2-(Difluoromethyl)-5-methoxypyridin-4-yl)-N-((4-(1-methoxyethyl)benzyl)sulfonyl)-4-methylbenzamide] | ≤ 2 nM | 0.65 nM | 17 nM | 1 nM
[2H]C([2H])([2H])O[C@@H](C)c1ccc(CS(=O)(=O)NC(=O)c2ccc(C([2H])([2H])[2H])cc2-c2cc(C(F)F)c(F)cc2OC)cc1 [cpd-21, (S)-5'-(Difluoromethyl)-4'-fluoro-2'-methoxy-N-((4-(1-(methoxy-d3)ethyl)benzyl)sulfonyl)-5-(methyl-d3)-[1,1'-biphenyl]-2-carboxamide] | ≤ 2 nM | 1.5 nM | 5.2 nM | 2.3 nM
[2H]C([2H])([2H])O[C@@H](C)c1ccc(CS(=O)(=O)NC(=O)c2ccc(C)cc2-c2cc(C(F)F)ncc2OC)cc1 [cpd-19, (S)-2-(2-(Difluoromethyl)-5-methoxypyridin-4-yl)-N-((4-(1-(methoxy-d3)ethyl)benzyl)sulfonyl)-4-methylbenzamide] | ≤ 2 nM | 0.45 nM | 21 nM | 2 nM
